Measurements published in ChEMBL document CHEMBL1126146, “Synthesis and muscarinic activity of quinuclidinyl- and (1-azanorbornyl)pyrazine derivatives” (J Med Chem, 1992).

What was measured:
[1] = target: T1, Muscarinic acetylcholine receptor (Rattus norvegicus) (UniProt P08482+P08483+P08485+P08911+P10980)
Description: In vitro binding affinity against cortical muscarinic acetylcholine receptor measured by displacement of [3H]NMS.

[2] = target: T1, Muscarinic acetylcholine receptor (Rattus norvegicus); remark: listed apart in the source
Description: In vitro binding affinity against cortical muscarinic acetylcholine receptor measured by displacement of [3H]OXO-M.

SMILES | K app [1] [µM] | K app [2] [µM]
Clc1cncc(C2CN3CCC2C3)n1 (configuration not stated) | 0.21 | 0.00056
c1cnc([C@@H]2CN3CCC2C3)cn1 (some centres not stated) | 1.6 | 0.0007
C=CCOc1cncc([C@@H]2CN3CCC2C3)n1 (some centres not stated) | 0.12 | 0.021
Cc1cnc(C)c(C2CN3CCC2CC3)n1 (configuration not stated) | 0.26 | 0.026
CC(C)c1nccnc1C1CN2CCC1C2 (configuration not stated) | 0.48 | 0.022
c1cnc([C@H]2CN3CCC2C3)cn1 (some centres not stated) | 0.059 | < 8.6e-05
Cc1cncc([C@H]2CN3CCC2C3)n1 (some centres not stated) | 0.18 | 0.0014
c1ncc(C2CN3CCC2CC3)cn1 (configuration not stated) | 2.8 | 0.16
Cc1cnc(C)c([C@@H]2CN3CCC2C3)n1 (some centres not stated) | 3 | 0.13
Cc1ncc([C@@H]2CN3CCC2C3)nc1C (some centres not stated) | 0.53 | 0.013
COc1cncc([C@@H]2CN3CCC2C3)n1 (some centres not stated) | 0.46 | 0.0098
Clc1ccc(C2CN3CCC2CC3)nn1 (configuration not stated) | 3.5 | 0.098
C#CCOc1cncc(C2CN3CCC2C3)n1 (configuration not stated) | 0.15 | 0.0088
Cc1cnc(C)c([C@H]2CN3CCC2C3)n1 (some centres not stated) | 0.19 | 0.011
Cc1nccnc1[C@@H]1CN2CCC1C2 (some centres not stated) | 5.2 | 0.0016
CCc1nccnc1[C@@H]1CN2CCC1C2 (some centres not stated) | 2.2 | 0.14
Brc1cncc(C2CN3CCC2CC3)n1 (configuration not stated) | 0.033 | 0.001
CCc1cncc(C2CN3CCC2CC3)n1 (configuration not stated) | 0.02 | 0.0017
Cc1ncc([C@H]2CN3CCC2C3)nc1C (some centres not stated) | 0.28 | 0.015
COc1cncc(C2CN3CCC2CC3)n1 (configuration not stated) | 0.14 | 0.0076
CN(C)c1cncc([C@H]2CN3CCC2C3)n1 (some centres not stated) | 0.86 | 0.057
Oc1cncc(C2CN3CCC2CC3)n1 (configuration not stated) | 27 | 0.28
Cc1nc(C)c([C@H]2CN3CCC2C3)nc1C (some centres not stated) | 0.35 | 0.053
Cc1ncc(C2CN3CCC2CC3)cn1 (configuration not stated) | 1.5 | 0.091
CN(C)c1cncc([C@@H]2CN3CCC2C3)n1 (some centres not stated) | 0.03 | 0.07

SMILES | K app [1] [µM] | K app [2] [µM]
COc1cncc([C@H]2CN3CCC2C3)n1 (some centres not stated) | 0.96 | 0.038
C=CCOc1cncc([C@H]2CN3CCC2C3)n1 (some centres not stated) | 0.23 | 0.03
CCc1cncc(C2CN3CCC2C3)n1 (stereo in doubt; 27b) | 0.15 | 0.0021
COc1cncc([C@@H]2CN3CCCC2C3)n1 (some centres not stated) | 0.19 | 0.0093
Cc1nc(C)c([C@@H]2CN3CCC2C3)nc1C (some centres not stated) | 1.6 | 0.25
Cc1cnc([C@H]2CN3CCC2C3)c(C)n1 (some centres not stated) | 0.75 | 0.017
c1cnc(C2CN3CCC2CC3)cn1 (configuration not stated) | 0.27 | 0.00068
c1cnc([C@@H]2CN3CCCC2C3)cn1 (some centres not stated) | 1.5 | 0.014
CCCc1nccnc1C1CN2CCC1C2 (configuration not stated) | 0.35 | 0.015
c1cnc([C@H]2CN3CCCC2C3)cn1 (some centres not stated) | 0.4 | 0.00084
Cc1cncc([C@@H]2CN3CCC2C3)n1 (some centres not stated) | 0.47 | 0.0015
CCc1cncc(C2CN3CCC2C3)n1 (stereo in doubt; 27a) | 0.13 | 0.0095
Cc1nccnc1C1CN2CCC1CC2 (configuration not stated) | 1.51 | 0.01
CC(C)Oc1cncc([C@H]2CN3CCC2C3)n1 (some centres not stated) | 0.13 | 0.031
Cc1nccnc1[C@H]1CN2CCC1C2 (some centres not stated) | 0.21 | 0.00026
Cc1cnc([C@@H]2CN3CCC2C3)c(C)n1 (some centres not stated) | 6.2 | 0.66
CCc1nccnc1[C@H]1CN2CCC1C2 (some centres not stated) | 0.69 | 0.02
CCOc1cncc(C2CN3CCC2CC3)n1 (configuration not stated) | 0.019 | 0.0021
Cc1ncc(C2CN3CCC2CC3)nc1C (configuration not stated) | 0.078 | 0.0095
Cc1cncc(C2CN3CCC2CC3)n1 (configuration not stated) | 0.066 | 0.0021
Clc1cncc(C2CN3CCC2CC3)n1 (configuration not stated) | 0.051 | 0.00087
Nc1noc(C2CN3CCC2C3)n1 (stereo in doubt; 3b) |  | 0.0051
CC(C)Oc1cncc([C@@H]2CN3CCC2C3)n1 (some centres not stated) | 0.049 | 0.012
COc1cncc([C@H]2CN3CCCC2C3)n1 (some centres not stated) | 1.2 | 0.087
